Values after ≈ are worked out from the molar mass of the structure shown.

The nature of series [1]: in vitro. Particulars: monkey, Vero 76 cells (ATCC CRL 1587).
Series [2] is described as follows: in vitro. As to conditions: rhesus monkey, LLC-MK2 cells (ATCC CRL 7).
The test system of series [3] is Vero.
Series [4] is described as follows: in vitro. Particulars: monkey, Vero 76 cells (ATCC CRL 1587). This is another data set of the same source.
The nature of series [5]: in vitro. As to conditions: monkey, Vero 76 cells (ATCC CRL 1587). This is another data set of the same source.
In series [6] the test system is Vero. This is another data set of the same source.
Series [7] concerns Vero. This is another data set of the same source.
The nature of series [8]: in vitro. As to conditions: rhesus monkey, LLC-MK2 cells (ATCC CRL 7). This is another data set of the same source.
For series [9], the system named is Vero. This is another data set of the same source.
Series [10] deals with Vero. The source holds these as a separate data set.
Series [11] deals with Vero. This is another data set of the same source.
Series [12] is described as follows: in vitro. Particulars: rhesus monkey, LLC-MK2 cells (ATCC CRL 7). This is another data set of the same source.
Series [13] has as its system Vero. The source holds these as a separate data set.
The test system of series [14] is Vero. This is another data set of the same source.
Series [15] is described as follows: in vitro. As to conditions: monkey, Vero 76 cells (ATCC CRL 1587). This is another data set of the same source.
The test system of series [16] is Vero. The source holds these as a separate data set.
Series [17] relates to Vero. This is another data set of the same source.
Series [18] can be described thus: in vitro. As to conditions: rhesus monkey, LLC-MK2 cells (ATCC CRL 7). This is another data set of the same source.
Series [19] in a line: in vitro. Particulars: monkey, Vero 76 cells (ATCC CRL 1587). The source holds these as a separate data set.
A short description of series [20]: in vitro. As to conditions: rhesus monkey, LLC-MK2 cells (ATCC CRL 7). This is another data set of the same source.

Turning to `Nc1nc(=O)n([C@H]2C=C(CO)[C@H](O)[C@@H]2O)cc1F`, the selectivity ratio is 86 in “in vitro [1]”; over 196 in the series “in vitro [2]”; over 74 in the series “in vitro [4]”; 15 in “in vitro [5]”; over 58 in “in vitro [8]”; 162 in the series “in vitro [12]”. Moreover, the selectivity ratio was over 69 in “in vitro [15]”, 189 in “in vitro [18]”, 49 in “in vitro [19]” and over 164 in “in vitro [20]”. Further, the EC50 with Vero [3] came to 2.63 µg/mL (≈ 10.2 µM); in the series with Vero [7], 1.46 µg/mL (≈ 5.68 µM); in the series on Vero [10] it was 2.05 µg/mL (≈ 7.97 µM); with Vero [13], 1.35 µg/mL (≈ 5.25 µM); in the series with Vero [14], 1.17 µg/mL (≈ 4.55 µM). Besides, the half-maximal inhibitory concentration (IC50) was 39 µg/mL (≈ 152 µM) in the series with Vero [6]; over 100 µg/mL in the series on Vero [9]; 100 µg/mL (≈ 389 µM) in the series with Vero [11]; over 100 µg/mL in the series on Vero [16]; 100 µg/mL (≈ 389 µM) in the series on Vero [17].
For the compound `OCC1=C[C@@H](n2cnc3c(O)ncnc32)[C@H](O)[C@@H]1O`, the EC50 with Vero [3], in the series on Vero [7], with Vero [10], with Vero [13] and in the series on Vero [14] was over 100 µg/mL each time. For the same compound, the IC50 in the series with Vero [6], in the series with Vero [9], in the series on Vero [11], in the series on Vero [16] and in the series on Vero [17] was over 100 µg/mL throughout.
Turning to `Nc1ccn([C@@H]2C=C(CO)[C@@H](O)[C@H]2O)c(=O)n1`, the selectivity ratio is 0.3 in the series “in vitro [1]”; 100 in “in vitro [2]”; over 20 in the series “in vitro [4]”; over 2000 in the series “in vitro [5]”; 550 in “in vitro [8]”; over 166 in the series “in vitro [12]”. Moreover, the selectivity ratio was 1000 in “in vitro [15]”, 300 in the series “in vitro [18]”, over 80 in “in vitro [19]” and 210 in “in vitro [20]”. In addition, the EC50 in the series with Vero [3] was under 0.05 µg/mL; in the series with Vero [7] it was 0.04 µg/mL (≈ 0.167 µM); with Vero [10], under 0.05 µg/mL; with Vero [13], 0.05 µg/mL (≈ 0.209 µM); in the series on Vero [14] it was over 100 µg/mL. The 50% inhibitory concentration (IC50) was over 100 µg/mL in the series on Vero [6]; 40 µg/mL (≈ 167 µM) with Vero [9]; 30 µg/mL (≈ 125 µM) in the series on Vero [11]; 1 µg/mL (≈ 4.18 µM) in the series on Vero [16]; 4 µg/mL (≈ 16.7 µM) in the series on Vero [17].
For the compound `Nc1ncnc2c1ncn2[C@@H]1C=C(CO)[C@@H](O)[C@H]1O` [NEOPLANOCIN A], the selectivity ratio in the series “in vitro [1]” is 71; in “in vitro [2]”, 360; in “in vitro [4]”, under 0.2; in the series “in vitro [5]”, 1670; in “in vitro [8]”, 230; in “in vitro [12]” it was 1. Moreover, the selectivity ratio in “in vitro [15]” turned out to be 1; in “in vitro [18]” it was 12; in “in vitro [19]”, 271; in “in vitro [20]”, 161. Further, the EC50 in the series with Vero [3] is 0.03 µg/mL (≈ 0.114 µM); in the series on Vero [7], over 100 µg/mL; in the series with Vero [10] it was 0.21 µg/mL (≈ 0.798 µM); with Vero [13], over 100 µg/mL; with Vero [14] it was 0.14 µg/mL (≈ 0.532 µM). Further, the concentration for half-maximal inhibition (IC50) is 50 µg/mL (≈ 190 µM) in the series on Vero [6], over 100 µg/mL in the series with Vero [9], 20 µg/mL (≈ 76 µM) in the series on Vero [16] and 57 µg/mL (≈ 217 µM) in the series on Vero [17].

These data come from ChEMBL document CHEMBL1136368, “Antiviral activity of cyclopentenyl nucleosides against orthopox viruses (Smallpox, monkeypox and cowpox)” (Bioorg Med Chem Lett, 2003).
